From the supplement of paper PMC10307832

Legend:
Assay in all cases: relative viability (nuclei count vs DMSO), 5 days (fraction); higher = more cells survive
NCI-H1755 = system: NCI-H1755
Outline: (§1)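 Relative viability was taken as the ratio of nuclei in treated wells to nuclei in vehicle wells. Lung cancer cell lines in 1536-well plates received compounds by pin tool one day after seeding, either one drug alone or a fixed anchor-drug dose plus five library-drug doses (not always all listed) in √10 steps. Nuclei were counted on 4× images after 5 days of treatment, and values are medians of duplicate plates.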

LC-2-ad = system: LC-2-ad
Outline: as §1

NCI-H2023 = system: NCI-H2023
Outline: as §1

NCI-H1395 = system: NCI-H1395
Outline: as §1

NCI-H650 = system: NCI-H650
Outline: as §1

NCI-H3122 = system: NCI-H3122
Outline: as §1

BEN = system: BEN
Outline: as §1

NCI-H1563 = system: NCI-H1563
Outline: as §1

NCI-H2170 = system: NCI-H2170
Outline: as §1

HCC-15 = system: HCC-15
Outline: as §1

SW 900 = system: SW 900
Outline: as §1

SW 1573 = system: SW 1573
Outline: as §1

NCI-H1915 = system: NCI-H1915
Outline: as §1

EMC-BAC-2 = system: EMC-BAC-2
Outline: as §1

LU99A = system: LU99A
Outline: as §1

NCI-H1734 = system: NCI-H1734
Outline: as §1

NCI-H358 = system: NCI-H358
Outline: as §1

HCC-44 = system: HCC-44
Outline: as §1

NCI-H2126 = system: NCI-H2126
Outline: as §1

NCI-H1437 = system: NCI-H1437
Outline: as §1

HOP-62 = system: HOP-62
Outline: as §1

CN1CCN(CCOc2cc(OC3CCOCC3)c3c(Nc4c(Cl)ccc5c4OCO5)ncnc3c2)CC1 [Saracatinib] + Nc1nc2[nH]cc(CCc3ccc(C(=O)N[C@@H](CCC(=O)O)C(=O)O)cc3)c2c(=O)[nH]1 [Pemetrexed] (partner 0.2 µM)
relative viability (NCI-H1755; first compound 0.02 µM): 0.465
relative viability (NCI-H1755; first compound 0.2 µM): 0.409
relative viability (NCI-H1755; first compound 0.6325 µM): 0.424
relative viability (NCI-H1755; first compound 2 µM): 0.394
relative viability (LC-2-ad; first compound 0.02 µM): 0.286
relative viability (LC-2-ad; first compound 0.2 µM): 0.282
relative viability (LC-2-ad; first compound 0.6325 µM): 0.268
relative viability (LC-2-ad; first compound 2 µM): 0.27
relative viability (NCI-H2023; first compound 0.02 µM): 0.229
relative viability (NCI-H2023; first compound 0.2 µM): 0.189
relative viability (NCI-H2023; first compound 0.6325 µM): 0.202
relative viability (NCI-H2023; first compound 2 µM): 0.191
relative viability (NCI-H1395; first compound 0.02 µM): 0.896
relative viability (NCI-H1395; first compound 0.2 µM): 0.769
relative viability (NCI-H1395; first compound 0.6325 µM): 0.846
relative viability (NCI-H1395; first compound 2 µM): 0.612
relative viability (NCI-H650; first compound 0.02 µM): 0.962
relative viability (NCI-H650; first compound 0.2 µM): 0.903
relative viability (NCI-H650; first compound 0.6325 µM): 0.884
relative viability (NCI-H650; first compound 2 µM): 0.874
relative viability (NCI-H3122; first compound 0.02 µM): 0.195
relative viability (NCI-H3122; first compound 0.2 µM): 0.169
relative viability (NCI-H3122; first compound 0.6325 µM): 0.197
relative viability (NCI-H3122; first compound 2 µM): 0.169
relative viability (BEN; first compound 0.02 µM): 0.916
relative viability (BEN; first compound 0.2 µM): 0.824
relative viability (BEN; first compound 0.6325 µM): 0.727
relative viability (BEN; first compound 2 µM): 0.667
relative viability (NCI-H1563; first compound 0.02 µM): 0.946
relative viability (NCI-H1563; first compound 0.2 µM): 0.576
relative viability (NCI-H1563; first compound 0.6325 µM): 0.742
relative viability (NCI-H1563; first compound 2 µM): 0.592
relative viability (NCI-H2170; first compound 0.02 µM): 0.25
relative viability (NCI-H2170; first compound 0.2 µM): 0.253
relative viability (NCI-H2170; first compound 0.6325 µM): 0.277
relative viability (NCI-H2170; first compound 2 µM): 0.202
relative viability (HCC-15; first compound 0.02 µM): 0.213
relative viability (HCC-15; first compound 0.2 µM): 0.225
relative viability (HCC-15; first compound 0.6325 µM): 0.219
relative viability (HCC-15; first compound 2 µM): 0.222
relative viability (SW 900; first compound 0.02 µM): 0.559
relative viability (SW 900; first compound 0.2 µM): 0.361
relative viability (SW 900; first compound 0.6325 µM): 0.506
relative viability (SW 900; first compound 2 µM): 0.408
relative viability (SW 1573; first compound 0.02 µM): 0.823
relative viability (SW 1573; first compound 0.2 µM): 0.899
relative viability (SW 1573; first compound 0.6325 µM): 0.794
relative viability (SW 1573; first compound 2 µM): 0.767
relative viability (NCI-H1915; first compound 0.02 µM): 0.477
relative viability (NCI-H1915; first compound 0.2 µM): 0.4
relative viability (NCI-H1915; first compound 0.6325 µM): 0.501
relative viability (NCI-H1915; first compound 2 µM): 0.481
relative viability (EMC-BAC-2; first compound 0.02 µM): 0.456
relative viability (EMC-BAC-2; first compound 0.2 µM): 0.373
relative viability (EMC-BAC-2; first compound 0.6325 µM): 0.44
relative viability (EMC-BAC-2; first compound 2 µM): 0.442
relative viability (LU99A; first compound 0.02 µM): 0.205
relative viability (LU99A; first compound 0.2 µM): 0.214
relative viability (LU99A; first compound 0.6325 µM): 0.173
relative viability (LU99A; first compound 2 µM): 0.165
relative viability (NCI-H1734; first compound 0.02 µM): 0.418
relative viability (NCI-H1734; first compound 0.6325 µM): 0.414
relative viability (NCI-H1734; first compound 2 µM): 0.4
relative viability (NCI-H358; first compound 0.02 µM): 0.193
relative viability (NCI-H358; first compound 0.2 µM): 0.166
relative viability (NCI-H358; first compound 0.6325 µM): 0.156
relative viability (NCI-H358; first compound 2 µM): 0.151
relative viability (HCC-44; first compound 0.02 µM): 0.645
relative viability (HCC-44; first compound 0.2 µM): 0.607
relative viability (HCC-44; first compound 0.6325 µM): 0.618
relative viability (HCC-44; first compound 2 µM): 0.667
relative viability (NCI-H2126; first compound 0.02 µM): 0.772
relative viability (NCI-H2126; first compound 0.2 µM): 0.664
relative viability (NCI-H2126; first compound 0.6325 µM): 0.659
relative viability (NCI-H2126; first compound 2 µM): 0.558
relative viability (NCI-H1437; first compound 0.02 µM): 0.329
relative viability (NCI-H1437; first compound 0.2 µM): 0.247
relative viability (NCI-H1437; first compound 0.6325 µM): 0.277
relative viability (NCI-H1437; first compound 2 µM): 0.286
relative viability (HOP-62; first compound 0.02 µM): 0.377
relative viability (HOP-62; first compound 0.2 µM): 0.33
relative viability (HOP-62; first compound 0.6325 µM): 0.332
relative viability (HOP-62; first compound 2 µM): 0.375
